# Assay results from patent US20130315849A1, “USE OF 13-HYDROXY-9,11-OCTADECADIENOIC ACID FOR TANNING HUMAN SKIN” (EVONIK GOLDSCHMIDT GMBH, priority 2010, published 2013).
# Key:
# POMC [1] = test: UV-B-induced POMC gene expression in keratinocytes (qRT-PCR); type: cell-based, human; conditions: NHEKs, 3 μg/ml 13-HODE, 160 J/m^2 UV-B, harvest 6 h after exposure; standardized to 18S rRNA; UV alone factor 1.8; p<0.01
# Protocol: In the present example, the effect of 13-HODE on the POMC gene expression in UV-B-stimulated keratinocytes (normal human epidermal keratinocytes, NHEKs) was investigated. For this purpose, firstly primary human epidermal keratinocytes were prepared from neonatal foreskin. The procedure is described in the following publications: Grether-Beck et al., J Invest Dermatol 2005, 125: 545-553; and Grether-Beck et al., Exp Dermatol 2008, 17: 771-779. […]
# After cultivation for 24 hours, the cells were exposed to a dose of 160 J/m^2 of UV-B radiation. […] The emitted power was determined using an IL 1700 Research Radiometer and SEE 240 UV-B photodetector (International Light Inc., Newbury Port, Mass.) and was 2.4 W/m^2 at a distance of 22 cm. […]
# Isolation of whole-RNA and subsequent analysis of the gene expression by means of quantitative Real Time PCR (qRT-PCR) was carried out as described previously (Grether-Beck et al., J Invest Dermatol 2005, 125: 545-553; Grether-Beck et al., Exp Dermatol 2008, 17: 771-779). […] The RNA concentration was determined by means of photometric measurement at 260/280 nm (Biophotometer, Eppendorf, Germany). […] Besides the POMC expression, the expression of the 18s rRNA gene was also determined quantitatively as a reference. […]
# IL-8 = test: UV-stimulated induction of IL-8 gene expression in keratinocytes (qRT-PCR); type: cell-based, human; conditions: NHEKs, UV-B exposed, treated with 13-HODE as in Example 1; UV alone induction factor 11.2
# Description: (§1) In the present example, the effect of 13-HODE on the expression of various proinflammatory marker genes in UV-B-stimulated keratinocytes (normal human epidermal keratinocytes, NHEKs) was investigated. The experimental procedure was largely identical to the procedure described in Example 1. Differences consisted merely in the selection of the gene-specific primers for carrying out the quantitative Real-Time PCR.
# POMC [2] = test: Basal (not UV-induced) POMC gene expression in keratinocytes (qRT-PCR); type: cell-based, human; conditions: NHEKs, 10 μg/ml 13-HODE, no UV, 24 h + 24 h; standardized to 18S rRNA
# Protocol: In the present example, the effect of 13-HODE on the POMC gene expression was investigated in keratinocytes which, in contrast to Example 1, have not been stimulated by prior UV exposure. For this purpose, firstly primary human epidermal keratinocytes were prepared from neonatal foreskin. The procedure is described in the following publications: Grether-Beck et al., J Invest Dermatol 2005, 125: 545-553; Grether-Beck et al., Exp Dermatol 2008, 17: 771-779. […]
# The isolation of the whole-RNA and also the subsequent analysis of the gene expression by means of quantitative Real Time PCR (qRT-PCR) was carried out as described previously (Grether-Beck et al., J Invest Dermatol 2005, 125: 545-553; Grether-Beck et al., Exp Dermatol 2008, 17: 771-779). […] The RNA concentration was determined by means of photometric measurement at 260/280 nm (Biophotometer, Eppendorf, Germany). […] Besides the POMC expression, the expression of the 18s rRNA gene was also quantitatively determined as a reference. […]
# The PCR reactions were carried out on an Opticon 1 (MJ Research, Waltham, Mass., USA). For all PCRs, double determinations of the biological triplicates were carried out, and for the evaluation averages of all measurements were calculated. […]
# COX2 = test: UV-stimulated induction of COX2 gene expression in keratinocytes (qRT-PCR); type: cell-based, human; conditions: NHEKs, UV-B exposed, treated with 13-HODE as in Example 1; UV alone induction factor 2.5
# Description: as §1
# human skin = test: Human in vivo study, maintenance of the skin tan (colorimetric skin colour); conditions: 39 people, forearm, twice daily for 56 days, formulations with 0.1, 0.4, 1.0% 13-HODE vs formulation without
# Protocol: In order to test to what extent 13-HODE has an influence on maintaining the skin tan, the maintenance of the summer tan under the influence of 13-HODE in test formulations was investigated in a clinical study. The study was carried out over a period of 8 weeks from mid-September to mid-November in Germany. The subject of the investigation was the skin colour by means of colorimetric measurements using a Skin-Colorimeter® CL 400 from Courage+Khazaka electronic GmbH, Cologne, Germany. The measurements were made in each case on the inside of the left and right forearm on a defined area measuring 3 cm×3 cm at a distance of 11-14 cm from the wrist. The average value, which resulted from the individual values of six to nine repeat measurements, was registered. 39 people aged 21-55 years participated, of which 28 were female and 11 male. In each case, the starting value of the skin colour TO was determined prior to the treatment and the value T8 was determined after treatment for 56 days with test formulations. The application frequency was twice daily, morning and evening. The test persons were given one formulation for the left arm and one for the right arm (formulation A, B, C, D; as per the table below).
# IL-6 = test: UV-stimulated induction of IL-6 gene expression in keratinocytes (qRT-PCR); type: cell-based, human; conditions: NHEKs, UV-B exposed, treated with 13-HODE as in Example 1; UV alone induction factor 10.1
# Description: as §1
# TNF-α = test: UV-stimulated induction of TNF-α gene expression in keratinocytes (qRT-PCR); type: cell-based, human; conditions: NHEKs, UV-B exposed, treated with 13-HODE as in Example 1; UV alone induction factor 7.4
# Description: as §1
structure (smiles),measurement,setting,value
"CCCCCC(O)C=CC=CCCCCCCCC(=O)O (centres unmarked) [13-HODE, 13-hydroxy-9,11-octadecadienoic acid]",POMC expression increased by a factor compared to the untreated control,POMC [1],4.9
same,expression level of IL-8 in UV-exposed cells,IL-8,considerably reduced expression level
same,basal (not UV-stimulated) POMC expression compared to the control treated with the vehicle (DMSO),POMC [2],1.2 fold
same,expression level of COX2 in UV-exposed cells,COX2,considerably reduced expression level
same,decrease in the blue-yellow parameter b* of the skin colour,human skin,reduced to differing degrees
same,increase in the parameter ITA° of the skin colour,human skin,reduced to differing degrees
same,expression level of IL-6 in UV-exposed cells,IL-6,considerably reduced expression level
same,expression level of TNF-α in UV-exposed cells,TNF-α,considerably reduced expression level
